Data as given in ChEMBL document CHEMBL3860052, “Anti-influenza activity of monoterpene-derived substituted hexahydro-2H-chromenes” (Bioorg Med Chem, 2016).
pIC50: −log10 of the molar value. ≈ marks a conversion by molar mass, not a printed value.

Assays:
[1] = Antiviral activity against Influenza A virus (A/California/07/2009(H1N1)); format: functional
[2] = Antiviral activity against Influenza A virus (A/California/07/09(H1N1)) pdm09 infected in chicken erythrocytes incubated for 1 hr with supernatants from 1 hr compound pre-treated MDCK cells infected with Influenza A virus (A/California/07/2009(H1N1)) pdm09 for 48 hrs assessed as reduction in viral replication by hemagglutination assay; format: functional, cell-based
[3] = Cytotoxicity against MDCK cells assessed as reduction in cell viability after 48 hrs by MTT assay; format: toxicity, cell-based, Canis lupus familiaris; details: dog
[4] = Selectivity index, ratio of CC50 for MDCK cells to IC50 for Influenza A virus (A/California/07/09(H1N1)) pdm09; format: functional

SMILES | IC50 [1] [µg/mL] | pIC50 [2] | CC50 at 48 h [3] [µM] | Ratio CC50/IC50 [4]
C=C(C)[C@@H]1CC=C(C)[C@@H](O)[C@@H]1O | 20 (≈ 119 µM) |  |  | 
CC(N)C12CC3CC(CC(C3)C1)C2 (centres undefined) [RIMANTADINE] |  | 4.36 | 350 | 8
